The text below walks through data of patent US20150132764A1, “BAG3 AS BIOCHEMICAL SERUM AND TISSUE MARKER” (BIOUNIVERSA S.R.L., priority 2012, published 2015).

In experiment [1] the test system is J774 A.1 cells. Description: FACS competition assay of FITC-rBAG3 binding to J774 macrophages. On the set-up: species or system murine. The following applies: 625 nM peptide, then 14 nM FITC-rBAG3, J774 cells. The protocol: In particular J774 cells were incubated with 14 nM FITC-BAG3 protein and with 625 nM of BAG3 peptides (peptide 1, peptide 2, peptide 3, peptide 4 or scrambled peptide) or with 420 nM of F(ab′)2 fragments from anti-BAG3 monoclonal and polyclonal antibodies (mouse monoclonal AC1, AC2 and rabbit polyclonal TOS2). F(ab′)2 fragments from mouse IgG or F(ab′)2 fragments from rabbit IgG were used as a negative control.
Competition—J774 A.1 cells (2.5×105/100 μl) were incubated with 625 nM of BAG3 peptides (peptide 1, peptide 2, peptide 3, peptide 4 or scrambled peptide) or with 420 nM of F(ab′)2 fragments from anti-BAG3 monoclonal and polyclonal antibodies (mouse monoclonal AC1, AC2 and rabbit polyclonal TOS2) or F(ab′)2 fragments from mouse IgG or F(ab′)2 fragments from rabbit IgG in PBS containing 2% FBS+0.1% NaN3 for 30 min on ice. After incubation the cells were washing with PBS and then were incubated with of FITC-rBAG3 protein (14 nM), in PBS containing 2% FBS+0.1% NaN3 for 30 min at 4° C. in the dark. After washing with PBS, the cells were resuspended in PBS+2% FBS+0.1% NaN3 and analyzed by flow cytometer (BD Biosciences).

The target of experiment [2] is FITC-conjugated recombinant BAG3 protein (human) (UniProt O95817). Description: flow cytometry competition; 14 nM FITC-rBAG3 on J774 A.1 cells with 420 nM control F(ab')2.
The target in experiment [3] is surface of J774 A1 macrophages (unidentified BAG3 binding partner) (murine). Description: flow cytometry on J774 A.1 cells, FITC-rBAG3 minus FITC-BSA background.
Experiment [4] has the same target. Description: flow cytometry on J774 A.1 cells, FITC-rBAG3. A general note: In flow cytometry, cells or beads pass a laser one at a time.
The subject of experiment [5] is J774 A.1 cells. Description: FACS analysis of FITC-rBAG3 binding to J774 macrophages. More on the design: species or system murine. As to conditions: for % of positive cells (±S.D.): flow cytometry. Here is the method: FIG. 3B: BAG3 binds macrophages. J774 A1 macrophages (1×10^6 cells/ml) were incubated with different concentration of Fitc-BAG3 protein (7, 14 and 70 nm). FITC-BSA (70 nM) was used as a negative control (grey). Cells fluorescence was analyzed by flow cytometry.
rBAG3 binding—J774 A.1 cells were blocked with 2% FBS+0.1% NaN3 in PBS for 15 min on ice and incubated (2.5×105/100 μl) with different concentration of FITC-rBAG3 protein (7, 14 and 70 nm) or FITC-BSA (70 nM) in PBS containing 2% FBS+0.1% NaN3 for 30 min at 4° C. in the dark. After washing with PBS, the cells were resuspended in PBS+2% FBS+0.1% NaN3 and analyzed with a FACScan (BD Biosciences) flow cytometer.

The subject of another experiment is HCMa cells. Description: Confocal direct fluorescence of rBAG3-FITC binding to cardiomyocytes. On the set-up: species or system Human. As to conditions: FITC-conjugated BAG3, 1 h, FIG. 3A. From the text:
FIG. 3A: Confocal microscopy analysis of direct fluorescence performed for detection of rBAG3-FITC binding to HCMa cells (a, b, c) and J774 A1 cells (d, e, f, g, h, i). BAG3 recombinant protein and purified BSA (albumin from bovine serum purchased from SIGMA) were conjugated to FITC using the FluoroTag FITC Conjugation Kit purchased from SIGMA following the manufacturer instructions. Equal amount of rBAG3-FITC (b, e) and BSA-FITC (h) proteins, calculated following the manufacturer instructions, were added in HCM and J774 A1 culture media with 0.1% NaN3 for 1 h. β-integrin was analyzed as control (a, d, g). Cells were analyzed by a Zeiss LSM confocal microscope. Merged images are shown in c, f and i.
Cells were cultured on coverslips in six-well plates to 60-70% confluence and equal amount of rBAG3-FITC and BSA-FITC proteins were added in HCMa and J774 A1 culture media with 0.1% NaN3 for 1 h. […] Samples were analyzed using a confocal laser scanning microscope (Zeiss LSM confocal microscope, Germany). […] For production of figures, brightness and contrast of images were adjusted by taking care to leave a light cellular fluorescence background for visual appreciation of the lowest fluorescence intensity features and to help comparison among the different experimental groups. […]

The target of experiment [6] is surface of J774 A1 macrophages (unidentified BAG3 binding partner) (murine). Description: flow cytometry on J774 A.1 cells, FITC-BSA negative control.
Experiment [7] relates to J774 A.1 cells. Description: Nitrite release from J774 A1 macrophages (Griess reaction). The experiment is classed as cell-based, murine. The following applies: 24 hours, FIG. 3C panel b. The protocol: FIG. 3C panel b—Analysis of nitrite release from J774 A1 macrophages incubated with BAG3. J774 A1 cells at 80% confluency were incubated with control medium, BSA, LPS or rBAG3 for 24 hours. 100 μl of supernatants from each sample were incubated with 100 μl of Griess reagent; the optical density at 550 nm (OD550) was measured with a Beckman DU62 spectrophotometer. Nitrite concentration was evaluated by comparing the OD550 of the sample with that of a standard curve of sodium nitrite.
Nitrite content (NO2^−), a stable metabolite of NO released by cells in the culture supernatant, was measured in J774 A.1 cells (5×104/in 96-well microplates) treated with LPS (10 ng/ml) or with rBAG3 (7, 14 and 28 nM) or BSA (28 nM) for 24 hours in absence or presence of polymyxin B sulfate (Sigma-Aldrich, St. Louis, Mo., USA) 5 μg/ml. NO2^− amounts were measured by Griess reaction. Briefly, 100 μL of cell culture medium were mixed with 100 μL of Griess reagent—equal volumes of 1% (w:v) sulphanilamide in 5% (v:v) phosphoric acid and 0.1% (w:v) naphtylethylenediamine-HCl—and incubated at room temperature for 10 min, and then the absorbance was measured at 550 nm in a microplate reader Titertek (Dasit, Cornaredo, Milan, Italy). The amount of NO2− (as μM) in the samples was calculated from a sodium nitrite standard curve.
In general terms: The Griess reaction detects nitrite, a stable product of nitric oxide.

For a further experiment, the system named is cyclooxygenase (Cox)-2. Description: Cox-2 expression in J774 A1 macrophages incubated with BAG3 (Western blotting). Format: cell-based, murine. As to conditions: J774 A1 cells, 20 hours, FIG. 3C panel a. The protocol: (§1) FIG. 3C: panel a—Analysis of Cox-2 and iNOS levels in J774 A1 macrophages incubated with BAG3. J774 A1 cells at 80% confluency were incubated with control medium, BSA, LPS or rBAG3, for 20 hours. Polymixin was added where indicated to verify that the effects of E. coli-derived rBAG3 were independent from the presence of contaminating endotoxin. Cox-2 and iNOS expression were analyzed in cell lysates by Western blotting.
(§2) Cells were harvested and lysed in a buffer containing 20 mM HEPES (pH 7.5), 150 mM NaCl, 0.1% Triton (TNN buffer) supplemented with a protease inhibitors cocktail (1 mM phenylmethylsulfonyl fluoride, […]) by 3 cycles of freezing and thawing. Soluble proteins were collected after a centrifugation at 10,000 g for 15 min and their amount was determined by Bradford assay (Bio-Rad, Hercules, Calif.). 25 μg of total protein and serum samples (1:2 in PBS-T 0.05%) were run on 8% or 10% SDS-PAGE gels and electrophoretically transferred to nitrocellulose membrane. […] Immunoreactivity was detected by sequential incubation with horseradish peroxidase-conjugated secondary antibodies purchased from Pierce (Rockford, Ill.) and ECL detection reagents purchased from Amersham Life Sciences Inc. (Arlington Heights, Ill., USA).
A general note: A western blot detects proteins with antibodies after separation by electrophoresis.

The test system of experiment [8] is inducible nitric oxide synthase (iNOS). Description: iNOS expression in J774 A1 macrophages incubated with BAG3 (Western blotting). The following applies: J774 A1 cells, 20 hours, FIG. 3C panel a. The experiment is classed as cell-based, murine. The protocol:
as §1, §2

The subject of experiment [9] is J774 A.1 cells. Description: IL-6 release from J774 A1 macrophages (ELISA). Format: cell-based, murine. As to conditions: FIG. 3C panel c. The protocol:
FIG. 3C panel c—Analysis of IL-6 release from J774 A1 macrophages incubated with BAG3. J774 A1 cells at 80% confluency macrophages were incubated with control medium, BSA, LPS or recombinant BAG3 for 5 hours. BAG3 peptides (peptide 1, peptide 2, peptide 3, peptide 4 or scrambled peptide) 625 nM were added where indicated to verify their ability to block BAG3 activity. IL-6 production was measured in cell culture medium using an ELISA test. IL-6 concentration was evaluated by comparing the OD of the sample with that of a standard curve of recombinant IL-6.
IL6 was measured in supernatant of J774 A.1 cells (5×10^4/in 96-well microplates) treated with LPS (10 ng/ml) or with rBAG3 (14 nM) or BSA (14 nM) for 10 or 20 hours in absence or presence of polymyxin B sulfate (5 μg/ml). After treatment 50 μL of cell culture medium were collected and analyzed in triplicate with a mouse IL6 Kit (eBioscience).

For experiment [10], the target named is surface of J774 A1 macrophages (unidentified BAG3 binding partner) (murine). Description: flow cytometry competition; 14 nM FITC-rBAG3 on J774 A.1 cells with 625 nM peptide.

Sequence of UniProt O95817 (O95817 whole entry): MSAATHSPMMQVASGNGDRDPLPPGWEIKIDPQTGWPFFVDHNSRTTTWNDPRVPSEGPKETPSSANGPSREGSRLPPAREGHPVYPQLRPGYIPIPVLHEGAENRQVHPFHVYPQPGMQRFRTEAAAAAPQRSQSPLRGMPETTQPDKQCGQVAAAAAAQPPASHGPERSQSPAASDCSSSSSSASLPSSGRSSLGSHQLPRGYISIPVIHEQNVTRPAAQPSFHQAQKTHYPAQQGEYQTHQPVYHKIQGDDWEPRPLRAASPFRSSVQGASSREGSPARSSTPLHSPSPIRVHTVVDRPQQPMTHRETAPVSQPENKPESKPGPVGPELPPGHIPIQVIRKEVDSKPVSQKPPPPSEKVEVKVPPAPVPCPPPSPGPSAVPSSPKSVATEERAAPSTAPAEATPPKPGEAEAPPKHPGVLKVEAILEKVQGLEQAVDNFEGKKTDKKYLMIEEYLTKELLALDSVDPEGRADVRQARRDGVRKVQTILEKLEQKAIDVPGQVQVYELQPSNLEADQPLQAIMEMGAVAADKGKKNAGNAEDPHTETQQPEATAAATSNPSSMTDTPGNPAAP

As to “SSPKSVATEERAAPS (listed as Homo sapiens) [Pep2, 12]”, in the experiment on J774 A.1 cells [1], the “Competition assays: % inhibition” value is given as 89.1% and the “Competition assays: % of positive cells (±S.D.)” value (“Competition assays: % … (±S.D.)” below) is listed as 1.21 (±0.63) %.
For “DRDPLPPGWEIKIDPQ (listed as Homo sapiens) [Pepl, 11]” the same measures were 98.4% and 0.18 (±0.05) %.
Regarding F(ab')2 fragments from mouse IgG, in experiment [2], the % inhibition was 0% and the % of positive cells was 12.3%.
In the case of “FITC-conjugated recombinant BAG3 protein (from UniProt O95817 1-575) (ligand)”, the % of positive cells in [3] was 11.1%; in experiment [4], 15.7%.
Regarding “NPSSMTDTPGNPAAP (listed as Homo sapiens) [Pep4, 14]”, in the experiment with J774 A.1 cells [1], the “Competition assays: % inhibition” value is listed as 93.8% and the “Competition assays: % … (±S.D.)” value is listed as 0.68 (±0.20) %.
For the molecule “FITC-rBAG3: BAG3 recombinant protein conjugated to FITC”, in the experiment with J774 A.1 cells [5] (FITC-conjugated BAG3, FIG. 3B), the “binding to macrophages of the cell line J774 (in words)” value is “bound to macrophages”. Also, the “% of positive cells (±S.D.)” value with J774 A.1 cells [5] (FITC-rBAG3 14 nM, J774 cells) was 15.7 (±0.45) %. Further, the “% of positive cells (±S.D.), (FITC-rBAG3)-(FITC-BSA)” value in the experiment with J774 A.1 cells [5] (FITC-rBAG3 signal minus FITC-BSA signal, J774 cells) is listed as 11.06 (±0.45) %. Moreover, in the experiment with HCMa cells, the “binding to the cardiomyocyte surface (in words)” value is on record as “did not apparently bind”.
As to “DKGKKNAGNAEDPHT (listed as Homo sapiens) [Pep3, 13]”, in the experiment on J774 A.1 cells [1], the “Competition assays: % inhibition” value came out at 47.2% and the “Competition assays: % … (±S.D.)” value is 5.86 (±0.43) %.
Take “FITC-BSA: purified albumin from bovine serum conjugated to FITC, negative control [reference compound]”: the “% of positive cells (±S.D.)” value with J774 A.1 cells [5] (FITC-BSA negative control, J774 cells) is 4.04 (±0.06) %.
On to “FITC-conjugated bovine serum albumin (from UniProt P02769 25-607)”, for which the % of positive cells in experiment [6] came out at 4.04%.
Turning to F(ab')2 fragments from rabbit IgG, in [2], the % inhibition was found to be 0% and the % of positive cells is 14.7%.
“recombinant BAG3: E. coli-derived recombinant BAG3 protein”: the release of nitrite result in the experiment with J774 A.1 cells [7] was “induced the release”. In addition, the “Cox-2 levels in macrophages” value with cyclooxygenase (Cox)-2 is “enhanced”. The “iNOS levels in macrophages” value in [8] is listed as “enhanced”. In the experiment on J774 A.1 cells [9], the “release of interleukin (IL)-6” value is on record as “induced the release”.
With SSPKSVATEERAAPS [BAG3 peptide 2], in experiment [10], the % inhibition is 89.1% and the % of positive cells turned out to be 1.21%.
For DKGKKNAGNAEDPHT [BAG3 peptide 3] the same measures were 47.2% and 5.86%.
On the same counts, the results for DRDPLPPGWEIKIDPQ [BAG3 peptide 1] are 98.4% and 0.18%.
For NPSSMTDTPGNPAAP [BAG3 peptide 4] the same measures were 93.8% and 0.68%.

As a reminder, the % inhibition is how much of the control response was suppressed.
